Measured values published in ChEMBL document CHEMBL5346955, “Discovery of HPG1860, a Structurally Novel Nonbile Acid FXR Agonist Currently in Clinical Development for the Treatment of Nonalcoholic Steatohepatitis” (J Med Chem, 2023).
The source made the active and inactive calls. The calls are words filed in the database; no cut-off is given here.

How the values were obtained:
[1] = Toxicity in C57BL/6J mouse assessed as change in body weight at 30 mg/kg, po qd; assay type: organism-based; details: in vivo
Mus musculus [2] = assay: Anti-nonalcoholic steatohepatitis activity against ccl4-induced C57BL/6J mouse model assessed as decrease in ALT level in liver at 30 mg/kg, po qd treated for 28 days; assay type: functional, organism-based; details: time 28.0 day
Mus musculus [3] = assay: Anti-nonalcoholic steatohepatitis activity against ccl4-induced C57BL/6J mouse model assessed as decrease in AST level in liver at 30 mg/kg, po qd treated for 28 days; assay type: functional, organism-based; details: time 28.0 day
Mus musculus [4] = assay: Anti-nonalcoholic steatohepatitis activity against ccl4-induced C57BL/6J mouse model assessed as reduction total cholesterol in serum at 30 mg/kg, po qd treated for 28 days; assay type: functional, organism-based; details: time 28.0 day
Mus musculus [5] = assay: Anti-nonalcoholic steatohepatitis activity against ccl4-induced C57BL/6J mouse model assessed as clearance of liver steatosis at 30 mg/kg, po qd treated for 28 days; assay type: functional, organism-based; details: time 28.0 day
Mus musculus [6] = assay: Anti-nonalcoholic steatohepatitis activity against ccl4-induced C57BL/6J mouse model assessed as improvement in liver inflammation at 30 mg/kg, po qd treated for 28 days; assay type: functional, organism-based; details: time 28.0 day
Mus musculus [7] = assay: Anti-nonalcoholic steatohepatitis activity against ccl4-induced C57BL/6J mouse model assessed as improvement in fibrosis at 30 mg/kg, po qd treated for 28 days; assay type: functional, organism-based; details: time 28.0 day

SMILES: CC[C@H]1[C@@H](O)C2[C@@H]3CC[C@H]([C@H](C)CCC(=O)O)[C@@]3(C)CC[C@@H]2[C@@]2(C)CC[C@@H](O)C[C@@H]12 (some centres not stated)
- Activity [1]: Non-Toxic
- Activity (Mus musculus [2]): inactive
- Activity (Mus musculus [3]): inactive
- Activity (Mus musculus [4]): Active
- Activity (Mus musculus [5]): Active
- Activity (Mus musculus [6]): inactive
- Activity (Mus musculus [7]): Active
